Data from PubChem BioAssay AID192 (DTP/NCI, 2004).
“And” between values parts separate entries of the source, which are not always exact repeats. Equal entries are not always repeated. Inconclusive results and toxic doses are left out. Numbered stars: 1 amine (or outer) side, 2 acyl side, 3 side chain; on linkers, the order of the positions; unused ones are H or OH. Bridge positions count the residues as written; N and C are the ends. Square brackets hold non-standard residues; d marks the D form. Peptide text beside a SMILES is read from it. I, II: the chains in the order shown. Actinocin(9to1) = Cc1c2oc3c(C)ccc(C(=O)[*:1])c3nc-2c(C(=O)[*:2])c(N)c1=O; NMeV = CN[CH](C(=O)O)C(C)C; Pip = O=C(O)[CH]1CCCCN1; Sar = CNCC(=O)O

Tested on: BDF1 mice, B16 melanoma ip, median survival T/C
Assay: NCI In Vivo Anticancer Drug Screen. Data for tumor model B16 Melanoma (intraperitoneal) in B6D2F1 (BDF1) mice
Settings: endpoint: median survival time, higher = longer survival
Procedure, shortened: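 Vehicle-treated animals serve as the reference (C); treated animals (T) are scored for survival or tumor size after tumor transplantation.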

[1] = dose: 25.0 mg/kg/injection, schedule: Q01DX009 (ip), vehicle: Klucel (hydroxypropylcellulose) (HPC)
[2] = dose: 50.0 mg/kg/injection, schedule: Q01DX009 (ip), vehicle: Klucel (hydroxypropylcellulose) (HPC)
[3] = dose: 3.12 mg/kg/injection, schedule: Q01DX009 (ip), vehicle: saline
[4] = dose: 12.5 mg/kg/injection, schedule: Q01DX009 (ip), vehicle: saline
[5] = dose: 25.0 mg/kg/injection, schedule: Q01DX009 (ip), vehicle: saline
[6] = dose: 75.0 mg/kg/injection, schedule: Q01DX009 (ip), vehicle: Klucel (hydroxypropylcellulose) (HPC)
[7] = dose: 150.0 mg/kg/injection, schedule: Q01DX009 (ip), vehicle: Klucel (hydroxypropylcellulose) (HPC)
[8] = dose: 300.0 mg/kg/injection, schedule: Q01DX009 (ip), vehicle: Klucel (hydroxypropylcellulose) (HPC)
[9] = dose: 100.0 mg/kg/injection, schedule: Q01DX009 (ip), vehicle: saline
[10] = dose: 200.0 mg/kg/injection, schedule: Q01DX009 (ip), vehicle: saline
[11] = dose: 400.0 mg/kg/injection, schedule: Q01DX009 (ip), vehicle: saline
[12] = dose: 100.0 mg/kg/injection, schedule: Q01DX009 (ip), vehicle: Klucel (hydroxypropylcellulose) (HPC)

With `Cc1c2oc3c(C)ccc(C(=O)NC4C(=O)NC(C(C)C)C(=O)N5CCCCC5C(=O)N(C)CC(=O)N(C)C(C(C)C)C(=O)OC4C)c3nc-2c(C(=O)NC2C(=O)NC(C(C)C)C(=O)N3CCCCC3C(=O)N(C)CC(=O)N(C)C(C(C)C)C(=O)OC2C)c(N)c1=O` (stereo unspecified) (I: TV[Pip][Sar][NMeV] / II: TV[Pip][Sar][NMeV]; ester I:1-I:C, II:1-II:C; linker I:N-II:N via Actinocin(9to1); configuration not given here) the T/C (dose: 0.25 mg/kg/injection, schedule: Q01DX009 (ip), vehicle: saline + alcohol) was 120 % of control, the T/C (dose: 0.5 mg/kg/injection, schedule: Q01DX009 (ip), vehicle: saline + alcohol) was 123 % of control and the T/C (dose: 0.75 mg/kg/injection, schedule: Q04DX003 (ip), vehicle: saline + alcohol) was 99 % of control and 116 % of control. For the same compound, the T/C (dose: 1.5 mg/kg/injection, schedule: Q04DX003 (ip), vehicle: saline + alcohol) was 111 % of control and 116 % of control, the T/C (dose: 2.0 mg/kg/injection, schedule: Q01DX009 (ip), vehicle: saline + alcohol) was 157 % of control and the T/C (dose: 6.0 mg/kg/injection, schedule: Q04DX003 (ip), vehicle: saline + alcohol) was 155 % of control.

`S=C1NC(c2ccccc2)NC(c2ccccc2)S1` (stereo unspecified) was tested, and the T/C (dose: 100.0 mg/kg/injection, schedule: Q01DX009 (ip), vehicle: other) was 100 % of control, the T/C (dose: 200.0 mg/kg/injection, schedule: Q01DX009 (ip), vehicle: other) was 94 % of control and the T/C (dose: 400.0 mg/kg/injection, schedule: Q01DX009 (ip), vehicle: other) was 86 % of control.

For `O=C(C=C(C(F)(F)F)C(F)(F)F)c1cccc(S(=O)(=O)F)c1`, the T/C (dose: 1.56 mg/kg/injection, schedule: Q01DX009 (ip), vehicle: saline with Tween-80) was 86 % of control, the T/C (dose: 3.13 mg/kg/injection, schedule: Q01DX009 (ip), vehicle: saline with Tween-80) was 93 % of control and the T/C (dose: 6.25 mg/kg/injection, schedule: Q01DX009 (ip), vehicle: saline with Tween-80) was 89 % of control. For the same compound, the T/C (dose: 8.0 mg/kg/injection, schedule: Q04DX003 (ip), vehicle: saline) was 105 % of control, the T/C (dose: 12.0 mg/kg/injection, schedule: Q04DX003 (ip), vehicle: saline) was 105 % of control and the T/C (dose: 18.0 mg/kg/injection, schedule: Q04DX003 (ip), vehicle: saline) was 110 % of control.

In the case of `Cc1nc(SCc2ccc(Cl)cc2)[nH]c(=O)c1CCO`, the T/C (dose: 100.0 mg/kg/injection, schedule: Q04DX003 (ip), vehicle: saline with Tween-80) is reported as 100 % of control, the T/C (dose: 200.0 mg/kg/injection, schedule: Q04DX003 (ip), vehicle: saline with Tween-80) is reported as 102 % of control and the T/C (dose: 400.0 mg/kg/injection, schedule: Q04DX003 (ip), vehicle: saline with Tween-80) is reported as 92 % of control.

With `O=C1C(NC(=O)C2CCCCC2)=C(N2CC2)C(=O)C(NC(=O)C2CCCCC2)=C1N1CC1` the T/C [1] was 109 % of control and the T/C [2] was 102 % of control.

For `Cc1cc(Cl)ccc1NC(=O)Nc1ccc(Cl)c(Cl)c1`, the T/C (dose: 50.0 mg/kg/injection, schedule: Q04DX003 (ip), vehicle: Klucel (hydroxypropylcellulose) (HPC)) was 90 % of control and the T/C (dose: 100.0 mg/kg/injection, schedule: Q04DX003 (ip), vehicle: Klucel (hydroxypropylcellulose) (HPC)) was 95 % of control.

In the case of `CNc1nc2c(N)ncnc2n1C1OC(CO)C(O)C1O` (stereo unspecified), the T/C (dose: 1.56 mg/kg/injection, schedule: Q01DX009 (ip), vehicle: saline) is reported as 94 % of control, the T/C [3] is reported as 90 % of control and the T/C (dose: 6.25 mg/kg/injection, schedule: Q01DX009 (ip), vehicle: saline) is reported as 95 % of control. The T/C [4] was 101 % of control and the T/C [5] was 101 % of control.

With `CCCCCC/C=C/[N+]([O-])=NC(COC)C(C)O` (stereo unspecified) the T/C (dose: 5.0 mg/kg/injection, schedule: Q01DX009 (ip), vehicle: Klucel (hydroxypropylcellulose) (HPC)) was 107 % of control and the T/C (dose: 10.0 mg/kg/injection, schedule: Q01DX009 (ip), vehicle: Klucel (hydroxypropylcellulose) (HPC)) was 105 % of control.

With `O=c1cnn(C2OC(CO)C(O)C2O)c(=O)[nH]1` (stereo unspecified) the T/C [6] was 99 % of control and 100 % of control, the T/C (dose: 125.0 mg/kg/injection, schedule: Q03HX024 (ip), vehicle: water) was 116 % of control and the T/C (dose: 125.0 mg/kg/injection, schedule: Q03HX032 (ip), vehicle: water) was 119 % of control. The T/C [7] was 92 % of control and 101 % of control, the T/C (dose: 250.0 mg/kg/injection, schedule: Q03HX024 (ip), vehicle: water) was 124 % of control and the T/C [8] was 100 % of control and 102 % of control. The T/C (dose: 600.0 mg/kg/injection, schedule: Q01DX009 (ip), vehicle: Klucel (hydroxypropylcellulose) (HPC)) was 101 % of control and 102 % of control and the T/C (dose: 1200.0 mg/kg/injection, schedule: Q01DX009 (ip), vehicle: Klucel (hydroxypropylcellulose) (HPC)) was 99 % of control.

In the case of `NCC(=O)c1ccc(O)c(O)c1`, the T/C [9] is reported as 100 % of control, the T/C [10] is reported as 110 % of control and the T/C [11] is reported as 120 % of control.

For `O=c1[nH]c(=O)n([C@H]2CCCO2)cc1F`, the T/C [3] was 86 % of control, the T/C (dose: 12.5 mg/kg/injection, schedule: Q01DX009 (ip), vehicle: Klucel (hydroxypropylcellulose) (HPC)) was 98 % of control and the T/C [4] was 86 % of control. The T/C [1] was 94 % of control, the T/C [5] was 100 % of control and the T/C [2] was 97 % of control. For the same compound, the T/C (dose: 50.0 mg/kg/injection, schedule: Q01DX009 (ip), vehicle: saline) was 95 % of control, the T/C [12] was 102 % of control and the T/C [9] was 102 % of control and 104 % of control.

With `CCCCCCCCCCCCCCCC[N+]1(CC)CCCC1` the T/C (dose: 0.1 mg/kg/injection, schedule: Q01DX009 (ip), vehicle: Klucel (hydroxypropylcellulose) (HPC)) was 102 % of control and the T/C (dose: 0.2 mg/kg/injection, schedule: Q01DX009 (ip), vehicle: Klucel (hydroxypropylcellulose) (HPC)) was 95 % of control.

With `OC(CI)C(O)C(O)C(O)CI` (stereo unspecified) the T/C [9] was 97 % of control, the T/C [10] was 94 % of control and the T/C [11] was 103 % of control.

In the case of `COc1cc2cc(c1Cl)N(C)C(=O)C[C@H](OC(=O)[C@H](C)N(C)C(C)=O)[C@]1(C)O[C@H]1[C@H](C)[C@@H]1C[C@@](O)(NC(=O)O1)[C@H](OC)C=C/C=C(\C)C2`, the T/C (dose: 0.5 micrograms/kg/injection, schedule: Q01DX009 (ip), vehicle: saline) is reported as 110 % of control, the T/C (dose: 1.0 micrograms/kg/injection, schedule: Q01DX009 (ip), vehicle: saline + alcohol) is reported as 163 % of control and the T/C (dose: 2.0 micrograms/kg/injection, schedule: Q01DX009 (ip), vehicle: saline) is reported as 117 % of control. For the same compound, the T/C (dose: 2.0 micrograms/kg/injection, schedule: Q04DX003 (ip), vehicle: saline) was 95 % of control, the T/C (dose: 4.0 micrograms/kg/injection, schedule: Q01DX009 (ip), vehicle: saline) was 105 % of control and the T/C (dose: 4.0 micrograms/kg/injection, schedule: Q04DX003 (ip), vehicle: saline) was 100 % of control. The T/C (dose: 8.0 micrograms/kg/injection, schedule: Q01DX009 (ip), vehicle: saline) was 155 % of control, the T/C (dose: 8.0 micrograms/kg/injection, schedule: Q04DX003 (ip), vehicle: saline) was 97 % of control and the T/C (dose: 16.0 micrograms/kg/injection, schedule: Q01DX009 (ip), vehicle: saline) was 157 % of control. For the same compound, the T/C (dose: 16.0 micrograms/kg/injection, schedule: Q04DX003 (ip), vehicle: saline) was 108 % of control, the T/C (dose: 32.0 micrograms/kg/injection, schedule: Q01DX009 (ip), vehicle: saline) was 97 % of control and the T/C (dose: 32.0 micrograms/kg/injection, schedule: Q04DX003 (ip), vehicle: saline) was 100 % of control.

With `COc1cc2c(cc1OC)/C(=N/N)CCC2` the T/C (dose: 6.25 mg/kg/injection, schedule: Q01DX009 (ip), vehicle: water) was 99 % of control, the T/C (dose: 12.5 mg/kg/injection, schedule: Q01DX009 (ip), vehicle: water) was 92 % of control and the T/C (dose: 25.0 mg/kg/injection, schedule: Q01DX009 (ip), vehicle: water) was 93 % of control. For the same compound, the T/C (dose: 50.0 mg/kg/injection, schedule: Q01DX009 (ip), vehicle: water) was 97 % of control.

`CC1CCC2C1C1C(CCC2(C)O)C1(C)C` (stereo unspecified) was tested, and the T/C [6] was 97 % of control, the T/C [7] was 94 % of control and the T/C [8] was 97 % of control.

`CCCC(C#N)(c1ccccc1)c1ccccc1` was tested, and the T/C [2] was 90 % of control, the T/C [12] was 90 % of control and the T/C (dose: 200.0 mg/kg/injection, schedule: Q01DX009 (ip), vehicle: Klucel (hydroxypropylcellulose) (HPC)) was 93 % of control.

With `CC(=O)Oc1[nH]c(=O)c2cccc3c2c1CCC3` the T/C (dose: 25.0 mg/kg/injection, schedule: Q01DX009 (ip), vehicle: saline with Tween-80) was 106 % of control, the T/C (dose: 50.0 mg/kg/injection, schedule: Q01DX009 (ip), vehicle: saline with Tween-80) was 107 % of control and the T/C (dose: 100.0 mg/kg/injection, schedule: Q01DX009 (ip), vehicle: saline with Tween-80) was 115 % of control. For the same compound, the T/C (dose: 200.0 mg/kg/injection, schedule: Q01DX009 (ip), vehicle: saline with Tween-80) was 114 % of control and the T/C (dose: 400.0 mg/kg/injection, schedule: Q01DX009 (ip), vehicle: saline with Tween-80) was 105 % of control.
